Reference: patent publication US10570075B2, “Compounds” (DSM IP ASSETS B.V., priority 2015, dated 2020)

Molecular target: T1, human vitamin D receptor (VDR) (Homo sapiens, UniProt P11473)
T1 construct: expressed in transfected cells; host or cells: HEK293 cells (ATCC), transient polyethylene-imine-based transfection
T1 sequence (P11473 127-423 limits assumed): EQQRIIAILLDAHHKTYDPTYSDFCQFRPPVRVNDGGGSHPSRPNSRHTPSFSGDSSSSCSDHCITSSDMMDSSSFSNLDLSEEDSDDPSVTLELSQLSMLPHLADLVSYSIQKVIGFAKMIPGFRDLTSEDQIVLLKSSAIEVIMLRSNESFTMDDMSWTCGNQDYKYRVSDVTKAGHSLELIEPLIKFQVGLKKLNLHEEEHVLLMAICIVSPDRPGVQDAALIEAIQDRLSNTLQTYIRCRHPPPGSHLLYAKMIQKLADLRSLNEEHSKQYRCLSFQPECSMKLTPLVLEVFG
Experiment: Human vitamin D receptor (VDR) agonist activity, GAL4-VDR LBD luciferase transactivation assay in HEK293 cells
Type: cell-based
Conditions: transiently transfected HEK293 cells, VDR LBD-GAL4 DBD hybrid receptor, pFR-Luc luciferase reporter, 16 h incubation; read-out: Effective concentrations of half maximal activation (EC50)
Text: By way of example, the human vitamin D receptor (VDR) agonist activity of the claimed compounds can be tested using a cell based transactivation assay in an eukaryotic cell line. After a co-transfection, using a reporter plasmid construct and a hybrid receptor construct containing the ligand-binding domain of the human VDR linked to the DNA-binding domain of the yeast transcription factor GAL4, the cultured cells were stimulated by the VDR agonists. The hybrid VDR-GAL4 receptor binds the VDR agonists and transactivates luciferase reporter expression through the GAL4-response elements in the promoter of the luciferase gene (reporter construct). The VDR agonist binding and transactivation is determined by measuring the luciferase luminescence activity. The effective concentration of half maximal activation (EC50) was determined for the VDR agonists by means of dose-response experiments. The details of the protocol method of this test according to the invention are described in the example section. […]

CC/C(=C\C=C\C(O)(C(F)(F)F)C(F)(F)F)c1cccc(CCc2ccc(CO)c(C(C)O)c2)c1 (racemic) [I-a, (3E,5E)-1,1,1-trifluoro-6-(3-(3-(1-hydroxyethyl)-4-(hydroxymethyl)phenethyl)phenyl)-2-(trifluoromethyl)octa-3,5-dien-2-ol]
EC50: 8 nM
